According to paper PMC11219871, “Epigenetic-based differentiation therapy for Acute Myeloid Leukemia” (Nature Communications, 2024):
“And” between values parts separate entries of the source, which are not always exact repeats. Equal entries are not always repeated.

Key:
G9a = molecular target: T1, G9a (Homo sapiens, UniProt Q96KQ7); assay: Epigenetic panel (BPS Bioscience); G9a TR-FRET IC50; type: biochemical
T1 sequence (Q96KQ7 1-1210): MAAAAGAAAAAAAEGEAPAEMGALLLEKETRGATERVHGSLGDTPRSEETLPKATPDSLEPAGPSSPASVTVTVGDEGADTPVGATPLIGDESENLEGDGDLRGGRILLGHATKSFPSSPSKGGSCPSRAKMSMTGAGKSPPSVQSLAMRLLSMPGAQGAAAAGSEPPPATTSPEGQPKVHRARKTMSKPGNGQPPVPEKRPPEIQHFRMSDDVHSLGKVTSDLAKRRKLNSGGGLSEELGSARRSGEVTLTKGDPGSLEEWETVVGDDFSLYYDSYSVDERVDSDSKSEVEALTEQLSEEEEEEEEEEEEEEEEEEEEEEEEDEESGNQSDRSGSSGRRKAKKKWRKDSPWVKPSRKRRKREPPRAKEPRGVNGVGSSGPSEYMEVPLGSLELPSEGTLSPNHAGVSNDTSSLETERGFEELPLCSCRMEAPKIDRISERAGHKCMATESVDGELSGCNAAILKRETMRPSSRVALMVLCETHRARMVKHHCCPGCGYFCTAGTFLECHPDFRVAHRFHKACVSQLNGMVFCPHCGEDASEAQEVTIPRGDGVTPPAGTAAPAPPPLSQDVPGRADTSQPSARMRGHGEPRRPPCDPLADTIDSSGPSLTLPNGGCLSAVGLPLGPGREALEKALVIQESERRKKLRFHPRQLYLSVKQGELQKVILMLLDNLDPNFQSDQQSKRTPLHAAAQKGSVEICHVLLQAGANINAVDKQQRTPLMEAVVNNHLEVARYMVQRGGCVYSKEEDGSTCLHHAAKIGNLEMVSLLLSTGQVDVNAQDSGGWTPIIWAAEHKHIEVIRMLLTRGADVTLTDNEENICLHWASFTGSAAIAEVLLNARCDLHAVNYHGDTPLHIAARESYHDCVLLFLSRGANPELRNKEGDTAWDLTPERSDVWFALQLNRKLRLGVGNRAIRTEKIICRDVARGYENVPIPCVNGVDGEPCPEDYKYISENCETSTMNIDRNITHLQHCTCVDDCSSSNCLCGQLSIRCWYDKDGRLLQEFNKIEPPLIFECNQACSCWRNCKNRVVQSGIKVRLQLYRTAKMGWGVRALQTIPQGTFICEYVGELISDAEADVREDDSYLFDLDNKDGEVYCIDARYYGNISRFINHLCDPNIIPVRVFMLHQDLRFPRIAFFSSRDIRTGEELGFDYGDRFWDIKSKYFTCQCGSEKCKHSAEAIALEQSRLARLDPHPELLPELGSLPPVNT
Method: DNMT1 and G9a IC50 values were measured using time-resolved fluorescence energy transfer assays, as described previously[18],[25],[26].
Binding experiments were performed in duplicate at a concentration of 10 μM.

HDAC3 = HDAC3 (Homo sapiens, UniProt O15379); assay: HDAC enzymatic assay, fluorescence-labeled substrate; type: biochemical; conditions: for inhibition at 10 µM: source data of Fig. 1B
ML-2 = assay: Proteome analysis (LC-MS/MS); type: cell-based, human; conditions: ML-2, 25% GI50, 12 h
Method: After cooling down, lysates were incubated at 25 °C with 10 units of DNAse (Benzonase, Merk) and sonicated for 15 min in a Bioruptor for DNA shearing. Protein concentration was determined using microBCA, using BSA as standard. […] LysC, Wako). […] Peptides (500 μg) were labeled with Thermo Scientific […] Isobaric reagents for 1 h at 25 C. […] The final mixture was desalted using a 500 mg Sep-Pak C18t cartridge (Waters) and dried prior to high pH reverse phase HPLC pre-fractionation. Labeled peptides were fractionated offline through a high pH reverse phase chromatography using an Ultimate 3000 HPLC system equipped with a sample collector. Briefly, peptides were dissolved in 1200 μL of Buffer A (10 mM NH4OH) and loaded onto a XBridge BEH130 C18 column (3.5 μm, 250 mm length and 3.5 mm ID, Waters). […] One-minute fractions (500 μL) from minute 15 to 65 were collected and neutralized with 10% formic acid. […] Pooled fractions were snap-frozen and lyophilized. LC-MS/MS was done by coupling an UltiMate 3000 RSLCnano LC system to an Orbitrap Exploris 480 mass spectrometer (Thermo Fisher Scientific). […] The mass spectrometer was operated in a data-dependent mode, with an automatic switch between MS and MS/MS scans using a top 15 method. (Intensity threshold ≥ 1e4, dynamic exclusion of 20 sec and excluding charges unassigned, +1 and ≥ +7). MS spectra were acquired from 350 to 1500 m/z with a resolution of 60,000 FMHW (200 m/z). Ion peptides were isolated using a 0.7 Th window and fragmented using higher-energy collisional dissociation (HCD) with a normalized collision energy NCE of 36. MS/MS spectra were acquired with a fixed first mass of 120 m/z and a resolution of 45,000 FMHW (200 m/z). […] For total protein analysis, raw files were processed with MaxQuant (v 2.4.9.0) using the standard settings against the same protein database. […] Briefly, proteins/sites with less than eighteen valid values were filtered out. Then, a global normalization of log2-transformed intensities across samples was performed using the LOESS function. Differential analysis was done using the empirical Bayes statistics Limma. […] The FDR was estimated to be below 2% by Benjamini-Hochberg.

[1] = tested on: ML-2 cells in BALB/cA Rag2-/-γc-/- mice; assay: Subcutaneous implant of in vitro pretreated cells, tumor volume; type: in vivo, mouse; set-up: key to Tumor volume: mm^3; V = D×d²/2 (D longest, d shortest diameter); conditions: for tumor growth: ML-2 cells pretreated in vitro 4 days, s.c.; for Tumor volume: ML-2 cells pretreated in vitro for 96 hours, injected subcutaneously, individual mice (Fig 3A)
Method: The human AML HL-60 and ML-2 cell lines were first pretreated in vitro daily with 270 and 260 nM of CM-444 or 300 and 210 nM of CM-1758, respectively, for 4 days. Prior to injection in mice, the cell differentiation induction by CM-444 and CM-1758 compounds was verified by measuring CD11b by flow cytometry, as described earlier. Then, 5 × 10^6 cells of cells, pretreated with CM-444, […], or vehicle (80% saline solution, 10% DMSO and 10% Tween 20) and diluted in 100 µL of saline solution, were implanted subcutaneously into the flank of female BALB/cA Rag2^−/−γc^−/− mice between 6 and 8 weeks of age (n = 8). Tumor size was analyzed every 2–3 days using the following method: […], where D and d corresponded to the longest and shortest diameter, respectively. The maximal tumor size/burden permitted by the Animal Care and Ethics Committee of the University of Navarra is 2000 mm^3. In some cases, this limit was reached on the last day of measurement and the mice were immediately euthanized.

HDAC3, sequence (O15379 whole entry): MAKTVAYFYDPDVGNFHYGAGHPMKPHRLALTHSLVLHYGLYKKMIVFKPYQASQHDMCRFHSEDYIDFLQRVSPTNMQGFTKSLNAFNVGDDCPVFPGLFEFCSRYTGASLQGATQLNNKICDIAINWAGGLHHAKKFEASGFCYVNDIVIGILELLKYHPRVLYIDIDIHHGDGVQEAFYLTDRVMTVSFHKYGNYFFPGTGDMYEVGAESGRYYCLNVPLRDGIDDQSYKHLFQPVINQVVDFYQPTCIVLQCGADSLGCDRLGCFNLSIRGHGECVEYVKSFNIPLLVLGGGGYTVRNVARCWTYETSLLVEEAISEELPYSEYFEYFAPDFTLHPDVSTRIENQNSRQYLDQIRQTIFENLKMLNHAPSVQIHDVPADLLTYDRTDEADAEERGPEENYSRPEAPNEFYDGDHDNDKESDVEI
HDAC3, sequence (Q9Y618 395-489 partner limits assumed): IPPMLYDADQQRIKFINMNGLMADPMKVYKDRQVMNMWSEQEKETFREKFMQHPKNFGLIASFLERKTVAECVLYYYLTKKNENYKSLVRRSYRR

Row | SMILES | IC50 (G9a) | inhibition at 10 µM (G9a) | inhibition at 10 µM (HDAC3) | proteins significantly regulated, of 8342 quantified (ML-2) | tumor growth [1] | Tumor volume ([1]; day 0, in mm³) | Tumor volume ([1]; day 5, in mm³) | Tumor volume ([1]; day 7, in mm³) | Tumor volume ([1]; day 9) | Tumor volume ([1]; day 12) | Tumor volume ([1]; day 14, in mm³) | Tumor volume ([1]; day 16, in mm³) | IC50 (HDAC3) | Tumor volume ([1]; day 12, in mm³)
1 | COc1cc2nc(-c3ccc(C)o3)cc(NCC3CCN(c4ncc(C(=O)NO)cn4)CC3)c2cc1OC [CM-444, 2-[4-[[[6,7-dimethoxy-2-(5-methyl-2-furyl)-4-quinolyl]amino]methyl]-1-piperidyl]pyrimidine-5-carbohydroxamic acid] | > 10 µM | 0% | 90% | 9.5% | tumor growth was significantly slower | 0 | 0 | 0 | 0 (5×) and 2.103 and 2.907 and 1.967 | 0 (3×) and 15.5058 and 44.8074 and 14.292 and 43.7037 and 21.7346 | 56.0772 and 79.1967 and 185.795 and 76.3392 and 203.44 and 147.179 and 18.725 and 23.4078 | 136.524 and 233.533 and 382.095 and 345.104 and 527.015 and 508.257 and 54.687 and 46.2692 | – | –
2 | COc1cc2nc(-c3cc(C)oc3C)cc(NCC3CCN(c4ncc(C(=O)NO)cn4)CC3)c2cc1OC [CM-1758, 2-[4-[[[2-(2,5-dimethyl-3-furyl)-6,7-dimethoxy-4-quinolyl]amino]methyl] -1-piperidyl]pyrimidine-5-carbohydroxamic acid] | > 10 µM | 9% | 90% | 8.8% | tumor growth was significantly slower | 0 | 0 | 0 | 1.83 and 2.997 and 3.143 and 0 (4×) and 2.907 | – | 153.626 and 316.908 and 512.533 and 39.4763 and 33.8029 and 280.96 and 104.197 and 181.612 | 325.692 and 736.294 and 1010.72 and 175.673 and 76.8746 and 574.138 and 425.416 and 598.506 | 0.014 µM | 16.9153 and 75.9412 and 211.561 and 0 and 9.058 and 82.0914 and 8.878 and 27.0425
3 | Cc1[nH]c2ccccc2c1CCNCc1ccc(/C=C/C(=O)NO)cc1 [Panobinostat, reference compound] | – | – | – | 5.8% | – | – | – | – | – | – | – | – | – | –
4 | O=C(CCCCCCC(=O)Nc1ccccc1)NO [Vorinostat, reference compound] | – | – | – | 2.7% | – | – | – | – | – | – | – | – | – | –
